Laboratory results published in the NIST ThermoML archive (doi:10.1021/je0503554).
Several values for one entry are separate records, joined by “and”; a condition that tells them apart may be missing. Identical values can stand only once. Numbers after ± are expanded uncertainties.

Test: activity coefficient (dimensionless); of the first substance listed, at infinite dilution; xn = mol fraction of the nth substance listed
Settings: Liquid, Chromatography, x1 = 0

C1=CCCC=C1 [1,3-cyclohexadiene] + CCCCCC[n+]1ccn(C)c1.O=S(=O)([N-]S(=O)(=O)C(F)(F)F)C(F)(F)F
activity coefficient (312.05 K): 1.8 ± 0.12
activity coefficient (322.65 K): 1.76 ± 0.12
activity coefficient (333.15 K): 1.72 ± 0.12
activity coefficient (343.65 K): 1.67 ± 0.11
activity coefficient (354.25 K): 1.62 ± 0.11

C1COCCO1 [1,4-dioxane] + CCCCCC[n+]1ccn(C)c1.O=S(=O)([N-]S(=O)(=O)C(F)(F)F)C(F)(F)F
activity coefficient (375.15 K): 0.04
activity coefficient (396.15 K): 0.047

C=CCCCCCCCC [1-decene] + CCCCCC[n+]1ccn(C)c1.O=S(=O)([N-]S(=O)(=O)C(F)(F)F)C(F)(F)F
activity coefficient (312.25 K): 16 ± 1.1
activity coefficient (322.85 K): 15.2 ± 1
activity coefficient (333.15 K): 14.1 ± 0.96
activity coefficient (333.25 K): 14.4 ± 0.98
activity coefficient (343.75 K): 13.5 and 13.3
activity coefficient (354.15 K): 13.1 ± 0.89
activity coefficient (364.55 K): 11.9 ± 0.81

C=CCCCCCCCCCC [1-dodecene] + CCCCCC[n+]1ccn(C)c1.O=S(=O)([N-]S(=O)(=O)C(F)(F)F)C(F)(F)F
activity coefficient (333.15 K): 25.6 ± 1.8
activity coefficient (343.75 K): 23.1 and 22.7
activity coefficient (354.15 K): 21.1 and 20.5
activity coefficient (364.55 K): 19.3 ± 1.3
activity coefficient (364.65 K): 18.7 ± 1.3
activity coefficient (374.95 K): 16.9 ± 1.1

C=CCCCCC [1-heptene] + CCCCCC[n+]1ccn(C)c1.O=S(=O)([N-]S(=O)(=O)C(F)(F)F)C(F)(F)F
activity coefficient (301.95 K): 6.36 ± 0.43
activity coefficient (312.45 K): 6.18 ± 0.42
activity coefficient (322.95 K): 5.96 ± 0.41
activity coefficient (333.45 K): 5.69 ± 0.39
activity coefficient (343.95 K): 5.44 ± 0.37
activity coefficient (354.35 K): 5.26 ± 0.36

C=CCCCCCCC [1-nonene] + CCCCCC[n+]1ccn(C)c1.O=S(=O)([N-]S(=O)(=O)C(F)(F)F)C(F)(F)F
activity coefficient (312.25 K): 12.5 ± 0.85
activity coefficient (322.75 K): 11.8 ± 0.81
activity coefficient (333.15 K): 11.2 ± 0.76
activity coefficient (333.35 K): 11.1 ± 0.75
activity coefficient (343.75 K): 10.5 ± 0.71
activity coefficient (354.15 K): 9.99 ± 0.68
activity coefficient (364.55 K): 9.54 ± 0.65

C=CCCC [1-pentene] + CCCCCC[n+]1ccn(C)c1.O=S(=O)([N-]S(=O)(=O)C(F)(F)F)C(F)(F)F
activity coefficient (301.95 K): 3.63 ± 0.23
activity coefficient (312.45 K): 3.54 ± 0.23
activity coefficient (322.95 K): 3.43 ± 0.24
activity coefficient (333.45 K): 3.39 ± 0.25

C=CCCCCCCCCC [1-undecene] + CCCCCC[n+]1ccn(C)c1.O=S(=O)([N-]S(=O)(=O)C(F)(F)F)C(F)(F)F
activity coefficient (322.65 K): 21 ± 1.4
activity coefficient (333.15 K): 19.2 ± 1.3
activity coefficient (343.75 K): 17.4 ± 1.2
activity coefficient (359.4 K): 15.4 ± 1.1
activity coefficient (369.85 K): 14.3 ± 0.97
activity coefficient (375.05 K): 14.1 ± 0.96

CC(C)CO [2-methyl-1-propanol] + CCCCCC[n+]1ccn(C)c1.O=S(=O)([N-]S(=O)(=O)C(F)(F)F)C(F)(F)F
activity coefficient (301.65 K): 2.46 ± 0.17
activity coefficient (312.15 K): 2.19 ± 0.15
activity coefficient (322.85 K): 1.9 ± 0.13
activity coefficient (333.35 K): 1.68 ± 0.11

CCC(C)(C)O [2-methylbutan-2-ol] + CCCCCC[n+]1ccn(C)c1.O=S(=O)([N-]S(=O)(=O)C(F)(F)F)C(F)(F)F
activity coefficient (301.65 K): 1.7 ± 0.11
activity coefficient (312.25 K): 1.53 ± 0.1
activity coefficient (322.75 K): 1.4 ± 0.09
activity coefficient (333.25 K): 1.3 ± 0.08
activity coefficient (343.75 K): 1.22 ± 0.08
activity coefficient (354.05 K): 1.14 ± 0.07
activity coefficient (364.55 K): 1.06 ± 0.07

CC(C)(C)O [2-methylpropan-2-ol] + CCCCCC[n+]1ccn(C)c1.O=S(=O)([N-]S(=O)(=O)C(F)(F)F)C(F)(F)F
activity coefficient (301.65 K): 1.7 ± 0.11
activity coefficient (312.15 K): 1.51 ± 0.1
activity coefficient (322.85 K): 1.34 ± 0.09
activity coefficient (333.35 K): 1.21 ± 0.08

CC(C)=O [acetone] + CCCCCC[n+]1ccn(C)c1.O=S(=O)([N-]S(=O)(=O)C(F)(F)F)C(F)(F)F
activity coefficient (301.75 K): 0.352 ± 0.032
activity coefficient (302.25 K): 0.352 ± 0.032
activity coefficient (312.25 K): 0.357 ± 0.033
activity coefficient (322.85 K): 0.362 ± 0.033
activity coefficient (333.35 K): 0.366 ± 0.033
activity coefficient (343.85 K): 0.371 ± 0.033
activity coefficient (354.25 K): 0.375 ± 0.033

CC#N [acetonitrile] + CCCCCC[n+]1ccn(C)c1.O=S(=O)([N-]S(=O)(=O)C(F)(F)F)C(F)(F)F
activity coefficient (312.25 K): 0.456 ± 0.036
activity coefficient (322.85 K): 0.446 ± 0.036
activity coefficient (333.35 K): 0.434 ± 0.035
activity coefficient (343.85 K): 0.426 ± 0.035
activity coefficient (354.25 K): 0.413 ± 0.034

c1ccccc1 [benzene] + CCCCCC[n+]1ccn(C)c1.O=S(=O)([N-]S(=O)(=O)C(F)(F)F)C(F)(F)F
activity coefficient (301.65 K): 0.779 and 0.778
activity coefficient (306.95 K): 0.776 ± 0.051
activity coefficient (312.25 K): 0.776 ± 0.051
activity coefficient (322.75 K): 0.777 ± 0.051
activity coefficient (322.85 K): 0.773 ± 0.051
activity coefficient (333.25 K): 0.777 and 0.774
activity coefficient (343.75 K): 0.769 ± 0.05

CCCCO [butan-1-ol] + CCCCCC[n+]1ccn(C)c1.O=S(=O)([N-]S(=O)(=O)C(F)(F)F)C(F)(F)F
activity coefficient (322.65 K): 2.06 ± 0.14
activity coefficient (333.15 K): 1.83 ± 0.12
activity coefficient (343.65 K): 1.67 ± 0.11
activity coefficient (354.15 K): 1.53 ± 0.1

CCC(C)O (centres undefined) [butan-2-ol] + CCCCCC[n+]1ccn(C)c1.O=S(=O)([N-]S(=O)(=O)C(F)(F)F)C(F)(F)F
activity coefficient (301.65 K): 2.14 ± 0.15
activity coefficient (312.15 K): 1.9 ± 0.13
activity coefficient (322.85 K): 1.66 ± 0.11
activity coefficient (333.35 K): 1.47 ± 0.1

CCCC=O [butanal] + CCCCCC[n+]1ccn(C)c1.O=S(=O)([N-]S(=O)(=O)C(F)(F)F)C(F)(F)F
activity coefficient (301.75 K): 0.578 ± 0.041
activity coefficient (312.25 K): 0.576 ± 0.041
activity coefficient (322.85 K): 0.574 ± 0.041
activity coefficient (333.35 K): 0.572 ± 0.041

CCCCc1ccccc1 [butylbenzene] + CCCCCC[n+]1ccn(C)c1.O=S(=O)([N-]S(=O)(=O)C(F)(F)F)C(F)(F)F
activity coefficient (354.25 K): 2.72 ± 0.19
activity coefficient (364.65 K): 2.69 ± 0.18
activity coefficient (375.15 K): 2.66 ± 0.18
activity coefficient (385.65 K): 2.62 ± 0.18

C1CCCCC1 [cyclohexane] + CCCCCC[n+]1ccn(C)c1.O=S(=O)([N-]S(=O)(=O)C(F)(F)F)C(F)(F)F
activity coefficient (300.95 K): 5.65 ± 0.39
activity coefficient (312.25 K): 5.23 ± 0.36
activity coefficient (322.85 K): 4.9 ± 0.33
activity coefficient (333.25 K): 4.59 ± 0.31

OC1CCCCC1 [cyclohexanol] + CCCCCC[n+]1ccn(C)c1.O=S(=O)([N-]S(=O)(=O)C(F)(F)F)C(F)(F)F
activity coefficient (354.05 K): 1.87 ± 0.13
activity coefficient (364.55 K): 1.6 ± 0.11
activity coefficient (374.95 K): 1.43 ± 0.09
activity coefficient (385.45 K): 1.29 ± 0.08
activity coefficient (395.95 K): 1.2 ± 0.08

C1=CCCCC1 [cyclohexene] + CCCCCC[n+]1ccn(C)c1.O=S(=O)([N-]S(=O)(=O)C(F)(F)F)C(F)(F)F
activity coefficient (301.85 K): 3.41 ± 0.23
activity coefficient (312.25 K): 3.24 ± 0.22
activity coefficient (322.85 K): 3.08 ± 0.21
activity coefficient (333.25 K): 2.94 ± 0.2
activity coefficient (343.75 K): 2.83 ± 0.19

CCCCCCCCCC [decane] + CCCCCC[n+]1ccn(C)c1.O=S(=O)([N-]S(=O)(=O)C(F)(F)F)C(F)(F)F
activity coefficient (307.05 K): 28.5 ± 1.9
activity coefficient (312.35 K): 27.4 ± 1.9
activity coefficient (322.85 K): 25.6 ± 1.8
activity coefficient (333.35 K): 22.9 ± 1.6

CCCCCCCCCCCC [dodecane] + CCCCCC[n+]1ccn(C)c1.O=S(=O)([N-]S(=O)(=O)C(F)(F)F)C(F)(F)F
activity coefficient (333.35 K): 39.6 ± 2.7
activity coefficient (343.75 K): 36.4 ± 2.5
activity coefficient (354.25 K): 34.2 ± 2.3
activity coefficient (364.75 K): 30.3 ± 2.1

CCO [ethanol] + CCCCCC[n+]1ccn(C)c1.O=S(=O)([N-]S(=O)(=O)C(F)(F)F)C(F)(F)F
activity coefficient (301.95 K): 1.95 ± 0.13
activity coefficient (312.45 K): 1.71 ± 0.11
activity coefficient (323.05 K): 1.51 ± 0.1
activity coefficient (333.45 K): 1.35 ± 0.09
activity coefficient (343.95 K): 1.2 ± 0.08
activity coefficient (354.45 K): 1.08 ± 0.07

CCc1ccccc1 [ethylbenzene] + CCCCCC[n+]1ccn(C)c1.O=S(=O)([N-]S(=O)(=O)C(F)(F)F)C(F)(F)F
activity coefficient (322.85 K): 1.55 ± 0.1
activity coefficient (333.35 K): 1.55 ± 0.1
activity coefficient (343.85 K): 1.54 ± 0.1
activity coefficient (354.25 K): 1.53 ± 0.1

CCCCCCCO [heptan-1-ol] + CCCCCC[n+]1ccn(C)c1.O=S(=O)([N-]S(=O)(=O)C(F)(F)F)C(F)(F)F
activity coefficient (354.05 K): 4.61 ± 0.31
activity coefficient (364.63 K): 4.13 ± 0.28
activity coefficient (375.05 K): 3.73 ± 0.25
activity coefficient (385.6 K): 3.42 ± 0.23
